Here are results for one compound from patent publication EP2924040A1, “2-Amino-1-(o-tolyl)pyrrolo[3,2-b]quinoxaline-3-carboxamide derivates” (Universität Zürich, priority 2014, dated 2015).

For data set [1], the target named is T1, EphB4 (Homo sapiens, UniProt P54760).
T1 sequence (P54760 16-987): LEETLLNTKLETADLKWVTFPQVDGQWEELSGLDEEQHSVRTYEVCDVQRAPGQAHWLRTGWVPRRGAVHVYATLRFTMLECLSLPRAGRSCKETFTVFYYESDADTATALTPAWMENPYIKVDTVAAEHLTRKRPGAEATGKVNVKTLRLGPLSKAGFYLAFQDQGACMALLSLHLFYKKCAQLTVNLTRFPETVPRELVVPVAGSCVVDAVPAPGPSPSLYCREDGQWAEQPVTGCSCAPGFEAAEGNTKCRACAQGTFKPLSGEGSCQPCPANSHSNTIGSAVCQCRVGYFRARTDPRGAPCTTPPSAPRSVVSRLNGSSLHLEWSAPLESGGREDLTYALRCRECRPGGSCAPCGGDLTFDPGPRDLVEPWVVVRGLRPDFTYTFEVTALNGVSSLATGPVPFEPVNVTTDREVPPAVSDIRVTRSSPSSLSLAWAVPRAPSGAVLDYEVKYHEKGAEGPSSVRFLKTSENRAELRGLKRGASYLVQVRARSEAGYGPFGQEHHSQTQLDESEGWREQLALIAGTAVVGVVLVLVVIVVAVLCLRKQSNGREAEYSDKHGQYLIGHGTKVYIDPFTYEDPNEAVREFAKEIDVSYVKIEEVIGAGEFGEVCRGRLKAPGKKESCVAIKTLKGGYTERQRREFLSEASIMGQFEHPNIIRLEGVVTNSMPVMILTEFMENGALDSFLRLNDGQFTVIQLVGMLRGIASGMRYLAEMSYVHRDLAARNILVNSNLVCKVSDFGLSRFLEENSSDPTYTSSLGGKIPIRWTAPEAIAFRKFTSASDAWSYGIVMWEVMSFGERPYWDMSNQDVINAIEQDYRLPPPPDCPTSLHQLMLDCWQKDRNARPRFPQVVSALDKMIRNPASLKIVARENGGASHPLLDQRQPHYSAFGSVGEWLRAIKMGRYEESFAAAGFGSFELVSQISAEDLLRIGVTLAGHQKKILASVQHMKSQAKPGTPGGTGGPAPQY
The data set is described as follows: Cellular phosphorylation assay (EphB4 autophosphorylation, sandwich ELISA). In kind it is cell-based. More on the design: stably transfected to overexpress full-length human EphB4; host or cells: mouse embryonic fibroblast cells. The following applies: mouse embryonic fibroblast cells overexpressing full-length human EphB4; 90 min at 37 °C; stimulated with murine ephrinB2-Fc. The procedure:
Mouse embryonic fibroblast cells, stably transfected to overexpress full-length human EphB4, were plated at 4×10^4 cells/well in DMEM supplemented with 10% FCS in 48-well culture dishes. Medium was replaced by DMEM without FCS before test compounds prediluted in 100% DMSO were added (final DMSO concentration of 1 %). […] Quantification of EphB4 phosphorylation was assessed in a 96-well plate via sandwich ELISA using a myc capture antibody and an antiphosphotyrosine detection antibody.

The target in data set [2] is T1, EphB4. The data set is described as follows: FRET based enzymatic assay (Z'-LYTE Kinase Assay Kit-Tyr 1 Peptide). Format: biochemical. The settings on record: EphB4 25 ng/µL, ATP 125 µM, room temperature, 2 h. The procedure: Selected compounds were tested in the Z'-LYTE™ Kinase Assay Kit-Tyr 1 Peptide (Invitrogen, USA) in a Corning 384 well microtiter plate. Fluorescence progress curves were measured upon excitation at 400 nm and emission at 445 and 520 nm.

A short description of data set [3]: In vivo pharmacokinetics in blood plasma. The following applies: male CD-1 mice. How it is done: Evaluation of the in vivo pharmacokinetics of a subset of compounds was performed through analysis of compound concentration in the blood plasma of male CD-1 (ICD) mice (each weighing 20-30 g) over a 24 hour period (at time points of 3, 10, 30, 60, 120, 240, 360 and 1440 minutes) following a single oral (PO) and intravenous (IV, in tail vein) administration of a compound dose corresponding to 5 mg of compound/kg of mouse body weight (PO) and 1 mg of compound/kg of mouse body weight (IV). For IV dosing, each compound was formulated as a clear solution in DMSO/Solutol® HS 15/phosphate-buffered saline, pH 7.4 (PBS) (5/5/90, v/v/v). For PO dosing, compounds were formulated as a homogeneous suspension in DMSO/1% methylcellulose (5/95, v/v).
At the relevant time point, blood samples (300-400 µL) were collected from the mice under general inhalant anaesthesia by cardiac puncture and stored on ice in 0.6 mL polypropylene heparin-lithium-coated tubes. Within 1 hour of collection, each tube was centrifuged at 2500 G for 15 minutes at 4°C and harvested plasma stored at -20°C.
Compound concentration in plasma at each time point was determined following acetonitrile precipitation of each sample followed by HPLC-MS analysis performed in triplicates, i.e., based on the mean of the compound concentration at that time point in blood samples of three mice.
Table 3: In vivo pharmacokinetics (min: minutes)

The subject of the next data set is K562. The data set is described as follows: Cell culture and GI50 determination (resazurin). The following applies: Homo sapiens, K562, 48 hour incubation. In kind it is cell-based. How it is done:
MDA-MB-231 (breast cancer) and KM12 (colon cancer) cells obtained from the UZH Cancer Institute, HOP-92 (lung cancer) cells purchased from the National Cancer Institute (NCl) and A498 (kidney cancer) cells obtained from Prof. Krek (Institute of Cell Biology, ETH Zurich) were cultured in Dulbecco's modified Eagle's medium (DMEM) supplemented with 10% (v/v) fetal bovine serum. K562 leukemia cells obtained from Dr. Silvio Hemmi (Institute of Molecular Life Sciences, UZH) were cultured using RPMI medium supplemented with 5% (v/v) fetal bovine serum. All the media was additionally supplemented with 100 units/mL of penicillin, 100µg/mL of streptomycin, 4.5 g/L glucose, 0.11g/L sodium pyrubate and 2mM glutamine and the cells were grown at 37 °C in 5% CO2 atmosphere with 80% relative humidity.
In the case of K-562 leukemia cells, these were seeded at a density of 20,000 cells per well in 100µL of RMPI media in a 96 well microtiter plates. […] After 48 hour incubation, cell viability was assessed by measuring the ability of the cells to process resazurin. Resazurin was added to every well to obtain a final concentration of 86nmol/L, and after 3 hours, the fluorescence was quantified using a fluorescence microplate reader (Biotek, FLx800™) at the respective excitation and emission wavelength of 560 and 590 nm as described above. […]

In the case of `Cc1ccc(O)cc1-n1c(N)c(C(N)=O)c2nc3ccccc3nc21` [Compound 2, 2-Amino-1-(5-hydroxy-2-methylphenyl)-1H-pyrrolo[2,3-b]quinoxaline-3-carboxamide], the half-maximal inhibitory concentration (IC50) against EphB4 [1] is under 6 nM; against EphB4 [2] it was 11 nM. Moreover, the “T1/2 (min, IV)” value in data set [3] (IV 1 mg/kg, plasma) stood at 1.68 h. For the same compound, the “Bioavailibility (%)” value in data set [3] ([AUClast(PO)*Dose(IV)] / [AUClast(IV)*Dose(PO)]) came to 25%. The same compound came in with a Cmax in data set [3] (mouse, PO 5 mg/kg, plasma) of 240 ng/mL. Besides, the half-life in data set [3] (mouse, PO 5 mg/kg, plasma, read-out: T1/2 (min, PO)) was determined as 1.67 h. Further, in data set [3] (mouse, PO 5 mg/kg, plasma, read-out: Tmax (min, PO) (converted)), the Tmax is 0.5 h. This compound also displayed a GI50 in the data set on K562 of 1050 nM.
